The results in this text go back to patent US12139499B2, “Heteroaryl compounds for treating Huntington's disease” (PTC THERAPEUTICS, INC., priority 2018, dated 2024).

A value given as a limit tells only on which side of the number the result lay.

The assay deals with Endogenous Huntingtin Protein. Nature of the assay: Endogenous Huntingtin Protein Assay (ELISA-based MSD electrochemiluminescence). The note with it: Table 1. Type of assay: cell-based. A digest of the protocol:
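Sandwich MSD electrochemiluminescence immunoassay. Capture used MW1 (expanded polyglutamine) or MAB2166 antibody coated at 1 μg/mL overnight at 4 °C. Samples were bound overnight at 4 °C, then a rabbit monoclonal detection antibody and SULFO-TAG anti-rabbit, each at 0.25 μg/mL, were applied for 1 h at room temperature.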
With `Cc1cn2cc(-c3ncc4nc(N(C)C5C6CCC5CNC6)sc4n3)cc(F)c2n1` (stereo not drawn) [Compound 227, N-[(8-anti)-3-azabicyclo[3.2.1]oct-8-yl]-5-(8-fluoro-2-methylimidazo[1,2-a]pyridin-6-yl)-N-methyl[1,3]thiazolo[5,4-d]pyrimidin-2-amine], the IC50 is 1000 to 3000 nM. As for `Cc1cn2cc(-c3ccc4nc(N(C)C5CC(C)(C)NC(C)(C)C5)sc4n3)ccc2n1` [Compound 129, N-methyl-5-(2-methylimidazo[1,2-a]pyridin-6-yl)-N-(2,2,6,6-tetramethylpiperidin-4-yl)[1,3]thiazolo[5,4-b]pyridin-2-amine], the figure is 500 to 1000 nM; as for `CCN1CCC(c2nc3c(F)cc(-c4ccc5nc(C)cn5n4)cc3s2)CC1` [Compound 106, 6-[2-(1-ethylpiperidin-4-yl)-4-fluoro-1,3-benzothiazol-6-yl]-2-methylimidazo[1,2-b]pyridazine], at most 100 nM; as for `Cc1cn2cc(-c3ccc4nc(N(C)C5CC(C)(C)NC(C)(C)C5)sc4n3)cc(F)c2n1` [Compound 177, 5-(8-fluoro-2-methylimidazo[1,2-a]pyridin-6-yl)-N-methyl-N-(2,2,6,6-tetramethylpiperidin-4-yl)[1,3]thiazolo[5,4-b]pyridin-2-amine], at most 100 nM. As for `Cc1cn2cc(-c3cc4sc(N(C)[C@H]5C[C@]6(C)CC[C@@](C)(N6)[C@H]5F)nc4cn3)cc(F)c2n1` [Compound 326], the figure is at most 100 nM.

`Cc1cn2nc(-c3cc(F)c4nc(C56CCN(CC5)CC6)sc4c3)cc(C)c2n1` [Compound 194, 6-[2-(1-azabicyclo[2.2.2]oct-4-yl)-4-fluoro-1,3-benzothiazol-6-yl]-2,8-dimethylimidazo[1,2-b]pyridazine] gave an IC50 of at most 100 nM. As for `CN1[C@@H]2CC[C@H]1C[C@H](Nc1nc3cnc(-c4cc(C#N)c5nn(C)cc5c4)cc3s1)C2` [Compound 244, 2-methyl-5-(2-{[(3-exo)-8-methyl-8-azabicyclo[3.2.1]oct-3-yl]amino][1,3]thiazolo[4,5-c]pyridin-6-yl)-2H-indazole-7-carbonitrile], the figure is 1000 to 3000 nM; as for `Cn1cc2cc(-c3cc4sc(OC5CCNCC5)nc4cn3)cc(C#N)c2n1` [Compound 315, 2-methyl-5-{2-[(piperidin-4-yl)oxy][1,3]thiazolo[4,5-c]pyridin-6-yl}-2H-indazole-7-carbonitrile], 100 to 500 nM. `COc1cc(-c2cc(F)c3nc(C4CCNCC4)sc3c2)ccc1F` [Compound 191, 4-fluoro-6-(4-fluoro-3-methoxyphenyl)-2-(piperidin-4-yl)-1,3-benzothiazole] returned an IC50 of 1000 to 3000 nM.

The molecule `CN1CC2(C1)CN(c1nc3nnc(-c4ccc(-c5c[nH]nc5F)cc4O)cc3s1)C2` [Compound 385, 5-(3-fluoro-1H-pyrazol-4-yl)-2-[6-(6-methyl-2,6-diazaspiro[3.3]heptan-2-yl)[1,3]thiazolo[4,5-c]pyridazin-3-yl]phenol] gave a half-maximal inhibitory concentration (IC50) of at most 100 nM. With `Cn1cc2cc(-c3cc(F)c4nc(C5CCNCC5)sc4c3)cc(CN)c2n1` [Compound 103, 1-{5-[4-fluoro-2-(piperidin-4-yl)-1,3-benzothiazol-6-yl]-2-methyl-2H-indazol-7-yl}methanamine], the IC50 is at most 100 nM.

The molecule `Cc1cn2cc(-c3cc(F)c4nc(C5CCNCC5)sc4c3)cc(F)c2n1` [Compound 152, 4-fluoro-6-(8-fluoro-2-methylimidazo[1,2-a]pyridin-6-yl)-2-(piperidin-4-yl)-1,3-benzothiazole] showed an IC50 of at most 100 nM. As for `CN(c1nc2nnc(-c3ccc(-c4c[nH]nc4F)cc3O)cc2s1)C1CCNCC1` [Compound 329, 5-(3-fluoro-1H-pyrazol-4-yl)-2-{6-[methyl(piperidin-4-yl)amino][1,3]thiazolo[4,5-c]pyridazin-3-yl}phenol], the figure is at most 100 nM; as for `Cc1cn2cc(-c3ccc4nc(N(C)C5CC(C)(C)NC(C)(C)C5)sc4c3)cc(C(F)(F)F)c2n1` [Compound 96, N-methyl-6-[2-methyl-8-(trifluoromethyl)imidazo[1,2-a]pyridin-6-yl]-N-(2,2,6,6-tetramethylpiperidin-4-yl)-1,3-benzothiazol-2-amine], 100 to 500 nM. Regarding `CN1CC[C@@H]2CCN(c3nc4nnc(-c5ccc(-c6cn[nH]c6)cc5O)cc4s3)[C@@H]2C1` [Compound 369, 2-{6-[(3aR,7aS)-6-methyloctahydro-1H-pyrrolo[2,3-c]pyridin-1-yl][1,3]thiazolo[4,5-c]pyridazin-3-yl}-5-(1H-pyrazol-4-yl)phenol], the IC50 is 100 to 500 nM. As for `CN[C@H]1C[C@@H](N(C)c2nc3nnc(-c4ccc(-c5cn[nH]c5)cc4O)cc3s2)C1` [Compound 361, 2-(6-{methyl[(1s,3s)-3-(methylamino)cyclobutyl]amino}[1,3]thiazolo[4,5-c]pyridazin-3-yl)-5-(1H-pyrazol-4-yl)phenol], the figure is 100 to 500 nM; as for `CC[C@]12CC[C@](CC)(CC(N(C)c3nc4cnc(-c5cc(C#N)c6nc(C)cn6c5)nc4s3)C1)N2` (stereo partly drawn) [Compound 303, 6-(2-{[(1R,3r,5S)-1,5-diethyl-8-azabicyclo[3.2.1]octan-3-yl](methyl)amino}[1,3]thiazolo[5,4-d]pyrimidin-5-yl)-2-methylimidazo[1,2-a]pyridine-8-carbonitrile], at most 100 nM.

Molecule `Cc1cn2nc(-c3cc(F)c4nc(N(C)C5CC6CCC(C5)N6)sc4c3)ccc2n1` (stereo not drawn) [Compound 209, N-[(3-exo)-8-azabicyclo[3.2.1]oct-3-yl]-4-fluoro-N-methyl-6-(2-methylimidazo[1,2-b]pyridazin-6-yl)-1,3-benzothiazol-2-amine] showed an IC50 of at most 100 nM.

On to `Cn1cc2cc(-c3cc(F)c4nc(C5CCNCC5)sc4c3)cc(F)c2n1` [Compound 126, 4-fluoro-6-(7-fluoro-2-methyl-2H-indazol-5-yl)-2-(piperidin-4-yl)-1,3-benzothiazole], for which the concentration for half-maximal inhibition (IC50) was at most 100 nM. The molecule `Oc1cc(-c2c[nH]nc2F)ccc1-c1cc2sc(N3CC4(CNC4)C3)nc2nn1` [Compound 368, 2-[6-(2,6-diazaspiro[3.3]heptan-2-yl)[1,3]thiazolo[4,5-c]pyridazin-3-yl]-5-(3-fluoro-1H-pyrazol-4-yl)phenol] came in with an IC50 of 100 to 500 nM. In turn, `Cc1cn2cc(-c3cc4sc(N(C)C5CC6(C)CCC(C)(C5)N6)nc4cn3)cc(F)c2n1` [Compound 286, N-[(1R,3s,5S)-1,5-dimethyl-8-azabicyclo[3.2.1]octan-3-yl]-6-(8-fluoro-2-methylimidazo[1,2-a]pyridin-6-yl)-N-methyl[1,3]thiazolo[4,5-c]pyridin-2-amine] had an IC50 of at most 100 nM.

For `CN[C@H]1CC[C@@H](N(C)c2nc3nnc(-c4ccc(-c5cn[nH]c5)cc4O)cc3s2)CC1` [Compound 345, 2-(6-{methyl[(1s,4s)-4-(methylamino)cyclohexyl]amino}[1,3]thiazolo[4,5-c]pyridazin-3-yl)-5-(1H-pyrazol-4-yl)phenol], the IC50 was 100 to 500 nM. Then `CN1C(C)(C)CC(Nc2nc3cnc(-c4cc(C#N)c5nn(C)cc5c4)cc3s2)CC1(C)C` [Compound 268, 2-methyl-5-{2-[(1,2,2,6,6-pentamethylpiperidin-4-yl)amino][1,3]thiazolo[4,5-c]pyridin-6-yl}-2H-indazole-7-carbonitrile], with 100 to 500 nM.

As for `CN(c1nc2nnc(-c3ccc(-c4cn[nH]c4)cc3O)cc2s1)C1CCNCC1(C)C` (stereo not drawn) [Compound 355, 2-{6-[(3,3-dimethylpiperidin-4-yl)(methyl)amino][1,3]thiazolo[4,5-c]pyridazin-3-yl}-5-(1H-pyrazol-4-yl)phenol], the IC50 is at most 100 nM. As to `Cc1cc(-c2nc3ccc(C4CCNCC4)cc3s2)cc2cn(C)nc12` [Compound 50, 2-(2,7-dimethyl-2H-indazol-5-yl)-6-(piperidin-4-yl)-1,3-benzothiazole], the IC50 fell in the range of 100 to 500 nM. Regarding `CN1CCC(N(C)c2nc3nnc(-c4ccc(-c5cn[nH]c5)cc4O)cc3s2)C1` (stereo not drawn) [Compound 375, 2-{6-[methyl(1-methylpyrrolidin-3-yl)amino][1,3]thiazolo[4,5-c]pyridazin-3-yl}-5-(1H-pyrazol-4-yl)phenol], the IC50 was at most 100 nM.

As for `Cc1csc2nc(-c3cc4sc(N(C)C5CC(C)(C)NC(C)(C)C5)nc4cn3)cn12` [Compound 305], the concentration for half-maximal inhibition (IC50) lay within 500 to 1000 nM.

With `CC1CC(c2nc3ccc(-c4ccc5nn(C)cc5c4)cc3s2)CCN1` (stereo not drawn) [Compound 58, 6-(2-methyl-2H-indazol-5-yl)-2-(2-methylpiperidin-4-yl)-1,3-benzothiazole], the half-maximal inhibitory concentration (IC50) is 500 to 1000 nM. As for `Cn1cc2cc(-c3cc4sc(OC5CC(C)(C)NC(C)(C)C5)nc4cn3)cc(C#N)c2n1` [Compound 311, 2-methyl-5-{2-[(2,2,6,6-tetramethylpiperidin-4-yl)oxy][1,3]thiazolo[4,5-c]pyridin-6-yl}-2H-indazole-7-carbonitrile], the figure is at most 100 nM. On to `Cn1cc2cc(-c3nc4ncc(C5CCNCC5)cc4s3)ccc2n1` [Compound 43, 2-(2-methyl-2H-indazol-5-yl)-6-(piperidin-4-yl)[1,3]thiazolo[4,5-b]pyridine], for which the IC50 fell in the range of 100 to 500 nM. Then `CN(c1nc2ncc(-c3cc(F)c4nn(C)cc4c3)nc2s1)C1CC(C)(C)NC(C)(C)C1` [Compound 150, 6-(7-fluoro-2-methyl-2H-indazol-5-yl)-N-methyl-N-(2,2,6,6-tetramethylpiperidin-4-yl)[1,3]thiazolo[4,5-b]pyrazin-2-amine], with at most 100 nM; and `CN(c1nc2ncc(-c3ccc4nn(C)cc4c3)cc2s1)C1CCNCC1` [Compound 12, N-methyl-6-(2-methyl-2H-indazol-5-yl)-N-(piperidin-4-yl)[1,3]thiazolo[4,5-b]pyridine-2-amine], with 1000 to 3000 nM; and `Cc1cn2cc(-c3cc4sc(N(C)C5CC(C)(C)NC(C)(C)C5)nc4cn3)nc2c(C)n1` [Compound 296, 6-(6,8-dimethylimidazo[1,2-a]pyrazin-2-yl)-N-methyl-N-(2,2,6,6-tetramethylpiperidin-4-yl)[1,3]thiazolo[4,5-c]pyridin-2-amine], with at most 100 nM.
